The text below walks through data of patent publication US6872574B2, “Proteomic analysis” (The Scripps Research Institute, priority 2000, dated 2005).

For one series, the system named is rat testis proteome. Format: binding.
Series [1] concerns the target T1, cALDH-I (Rattus norvegicus, UniProt P51647).
T1 construct: made in house; host or cells: E. coli BL-21
T1 sequence (P51647 1-501): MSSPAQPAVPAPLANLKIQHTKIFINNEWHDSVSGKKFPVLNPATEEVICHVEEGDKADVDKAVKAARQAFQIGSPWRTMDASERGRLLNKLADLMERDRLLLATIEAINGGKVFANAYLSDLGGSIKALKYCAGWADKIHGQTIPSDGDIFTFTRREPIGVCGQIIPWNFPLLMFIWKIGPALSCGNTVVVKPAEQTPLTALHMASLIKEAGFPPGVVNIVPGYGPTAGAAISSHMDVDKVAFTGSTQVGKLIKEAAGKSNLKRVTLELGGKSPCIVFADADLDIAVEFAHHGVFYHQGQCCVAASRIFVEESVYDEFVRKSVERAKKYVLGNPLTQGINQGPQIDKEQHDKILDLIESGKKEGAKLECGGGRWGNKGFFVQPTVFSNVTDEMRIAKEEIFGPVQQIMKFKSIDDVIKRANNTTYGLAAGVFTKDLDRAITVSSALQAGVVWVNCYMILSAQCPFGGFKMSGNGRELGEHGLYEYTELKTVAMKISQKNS
As to the kind of experiment: cALDH-I enzyme assay and inhibition studies. Format: biochemical. The method, then: (§1) cALDH-I activity was determined at 25° C. in Tris buffer (20 mM Tris-HCl, pH 8, 100 mM NaCl). Purified cALDH-I (0.2 μM) was preincubated with 15 (2.5 μM-15 μM) in DMSO (30 μL, 3% total incubation vol) in a volume of 950 μL for 5 to 45 min. After preincubation of the enzyme with inhibitor, remaining catalytic activity was measured by adding NAD^+ (500 μM final concentration) and propionaldehyde (1 mM final concentration) in 50 μL of buffer. Production of NADH from the oxidation of propionaldehyde was monitored by measuring the change in absorbance at 340 nm for 2 min. In substrate competition assays, purified cALDH-I (0.2 μM) was preincubated with either NAD^+ (50 μM) or propionaldehyde (25 μM) and 10 μM of 15 for 10 minutes at 25° C. in a volume of 950 μL. Remaining catalytic activity was monitored as described above.

The conditions of series [2]: pH 8.
In series [3] the target is T1, cALDH-I. Format: binding.
Substrate in series [4]: CCC=O
As to the kind of experiment: cALDH-I enzyme assay and inhibition studies. Format: biochemical, rat. The following applies: other: His-tagged recombinant cALDH-I; pH 8.0; 25.0 °C. On the procedure:
as §1

The next series relates to trypsin. Format: binding.
For another series, the system named is serine hydrolases. Format: binding, rat.

With `O=C(CCCCCCCCCOS(=O)(=O)c1cccc2cccnc12)NCCCCCNC(=O)CCCCC1SCC2NC(=O)NC21` (stereo not drawn) [Sulfonate 9, 10-((8-Quinolinesulfonyl)oxo)-N-biotinamidopentyldecanamide], the “specific (heat-sensitive) proteome reactivity” value in the series on rat testis proteome is “reacted specifically with a 55 kDa protein, as well as two additional proteins”.
On the same count and under the same terms, with `O=C(CCCCCCCCCOS(=O)(=O)c1ccc([N+](=O)[O-])cc1)NCCCCCNC(=O)CCCCC1SCC2NC(=O)NC21` (stereo not drawn) [Sulfonate 8, 10-((4-Nitrobenzenesulfonyl)oxo)-N-biotinamidopentyldecanamide] the entry was “reacted specifically with a 55 kDa protein, as well as two additional proteins”.
As for `COc1ccc(S(=O)(=O)OCCCCCCCCCC(=O)NCCCCCNC(=O)CCCCC2SCC3NC(=O)NC32)cc1` (stereo not drawn) [Sulfonate 4, 10-((4-Methoxybenzenesulfonyl)oxo)-N-biotinamidopentyldecanamide], in the series with rat testis proteome, the “nonspecific (heat-insensitive) proteome reactivity” value is on record as “significant additional reactivity with the preheated proteome”.
As to `CCCCCCCCOS(=O)(=O)c1ccccn1` [Sulfonate 15, 1-(2-Pyridylsulfonyl)oxo-octane], at cALDH-I [1], the “average Kobs/[I]” value is on record as “(9.7+1.8)×10^3 M^−1min^−1”. In series [2], the “stability to assay conditions” value is “stable to the assay conditions employed”.
For the molecule `O=C(CCCCCCCCCOS(=O)(=O)c1cccs1)NCCCCCNC(=O)CCCCC1SCC2NC(=O)NC21` (stereo not drawn) [Sulfonate 11], the “specific (heat-sensitive) proteome reactivity” value in the series on rat testis proteome was “reacted specifically with a 55 kDa protein, as well as two additional proteins”.
Regarding `CS(=O)(=O)OCCCCCCCCCC(=O)NCCCCCNC(=O)CCCCC1SCC2NC(=O)NC21` (stereo not drawn) [Sulfonate 5, 10-((Methylsulfonyl)oxo)-N-biotinamidopentyldecanamide], the “nonspecific (heat-insensitive) proteome reactivity” value in the series with rat testis proteome was “significant additional reactivity with the preheated proteome”.
On to `CCCCCCCCS(=O)(=O)OCCCCCCCCCC(=O)NCCCCCNC(=O)CCCC[C@@H]1SC[C@@H]2NC(=O)N[C@@H]21` [Sulfonate 7, 10-((Octylsulfonyl)oxo)-N-biotinamidopentyldecanamide], for which, in the series on rat testis proteome, the “specific (heat-sensitive) proteome reactivity” value is “All sulfonates except the octylsulfonate 7 labeled at least one member of the testis proteome in a heat-sensitive manner”.
In the case of `O=C(CCCCCCCCCOS(=O)(=O)c1ccccn1)NCCCCCNC(=O)CCCC[C@@H]1SC[C@@H]2NC(=O)N[C@@H]21` [Sulfonate 1, 10-((2-Pyridylsulfonyl)oxo)-N-biotinamidopentyldecanamide], the “labeling of 55-kDa protein in cALDH-I-transfected cells” value at cALDH-I [3] is on record as “labeled strongly”.

B1: cALDH-I (Rattus norvegicus) (protein)
chain: T1 sequence (P51647 1-501)
notes: made in house; host or cells: E. coli BL-21
Consider B1, for which the Km in series [4] was found to be 4.2 µM.

B2: STI: Kunitz-type serine protease inhibitor, soybean trypsin inhibitor (protein, UniProt P01070 25-205, looked up)
Trypsin inhibitor A: DFVLDNEGNPLENGGTYYILSDITAFGGIRAAPTGNERCPLTVVQSRNELDKGIGTIISSPYRIRFIAEGHPLSLKFDSFAVIMLCVGIPTEWSVVEDLPEGPAVKIGENKDAMDGWFRLERVSDDEFNNYKLVFCPQQAEDDKCGDIGISIDHDDGTRRLVVSKNKPLVVQFQKLDKESL
In the case of B2, in the series with trypsin, the “FP-biotin labeling of trypsin preincubated with STI” value was “did not label”. Besides, the “FP-biotin labeling intensities in STI-treated sample” value in the series on serine hydrolases is listed as “several, but not all FP-biotin reactive proteins showed significantly lower labeling intensities”.

By Km is commonly meant the concentration of substrate that gives half-maximal velocity.
